Measured values published in BindingDB's records for patent US10487086 (Bristol Myers Squibb, 2019).

Molecular target: Coagulation factor XI (Homo sapiens, UniProt P03951)
Experiment: Factor XIa assay
Procedure: The effectiveness of compounds of the present invention as inhibitors of the coagulation Factors XIa, VIIa, IXa, Xa, XIIa, plasma kallikrein or thrombin, can be determined using a relevant purified serine protease, respectively, and an appropriate synthetic substrate. The rate of hydrolysis of the chromogenic or fluorogenic substrate by the relevant serine protease was measured both in the absence and presence of compounds of the present invention. […] A decrease in the rate of absorbance or fluorescence change in the presence of inhibitor is indicative of enzyme inhibition. Such methods are known to one skilled in the art. […] Determinations were made using purified human Factor XIa at a final concentration of 25-200 pM (Haematologic Technologies) and the synthetic substrate S-2366 (pyroGlu-Pro-Arg-pNA; CHROMOGENIX or AnaSpec) at a concentration of 0.0002-0.001 M.

Sequence of Coagulation factor XI (P03951 19-387 limits assumed): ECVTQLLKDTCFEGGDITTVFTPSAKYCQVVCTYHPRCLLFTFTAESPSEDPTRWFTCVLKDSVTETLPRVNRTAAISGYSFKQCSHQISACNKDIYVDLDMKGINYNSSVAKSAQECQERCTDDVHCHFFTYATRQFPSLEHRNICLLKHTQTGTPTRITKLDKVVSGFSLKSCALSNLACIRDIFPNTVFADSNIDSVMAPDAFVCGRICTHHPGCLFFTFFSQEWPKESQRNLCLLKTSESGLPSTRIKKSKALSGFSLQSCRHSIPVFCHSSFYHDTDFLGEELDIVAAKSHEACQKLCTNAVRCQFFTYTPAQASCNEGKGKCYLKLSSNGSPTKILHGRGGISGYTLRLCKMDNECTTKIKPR
Sequence of Coagulation factor XI (P03951 388-625 limits assumed): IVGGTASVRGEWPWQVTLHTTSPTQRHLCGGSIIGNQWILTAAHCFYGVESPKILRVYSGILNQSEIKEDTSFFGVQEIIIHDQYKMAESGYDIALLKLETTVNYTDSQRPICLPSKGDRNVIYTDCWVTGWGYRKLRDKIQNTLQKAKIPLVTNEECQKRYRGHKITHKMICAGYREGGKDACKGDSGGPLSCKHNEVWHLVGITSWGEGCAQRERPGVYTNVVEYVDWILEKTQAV

Ki: 580 nM
Structure (SMILES): COC(=O)Nc1ccc2c(c1)N[C@@H](C(=O)O)CCCC[C@H](NC(=O)/C=C/c1cc(Cl)ccc1-n1cnnn1)c1nc-2c[nH]1 [US10487086, Example I-84]
